≈ marks a conversion by molar mass, not a printed value. Calls of active or inactive are those of the source. No cut-off for these calls is given here.

For assay [1], the system named is Candida albicans. Description: Antimicrobial activity against Candida albicans MTCC 183 at 50 ug/mL after 12 hrs by well diffusion method. Conditions: for zone of inhibition at 50 µg/mL: MTCC 183, 12 h, read-out: DIZ. In kind it is functional. In general terms: In agar diffusion tests the substance spreads into inoculated agar from a disc or well.
For assay [2], the system named is Staphylococcus aureus. Conditions: MTCC 3160, 50 ug/mL.
Description: Antimicrobial activity against Staphylococcus aureus MTCC 3160 at 50 ug/mL after 12 hrs by well diffusion method
Assay [3] deals with Candida albicans. Description: Antimicrobial activity against Candida albicans MTCC 183 at 100 ug/mL after 12 hrs by well diffusion method. It is filed as functional. The following applies: for zone of inhibition at 100 µg/mL: MTCC 183, 12 h, read-out: DIZ.
Assay [4] has as its system Pseudomonas aeruginosa. The experiment in a line: Antimicrobial activity against Pseudomonas aeruginosa MTCC 4673 at 50 ug/mL after 12 hrs by well diffusion method. It is filed as functional. The following applies: for zone of inhibition at 50 µg/mL: MTCC 4673, 12 h, read-out: DIZ.
The subject of assay [5] is Salmonella typhimurium. The experiment in a line: Antimicrobial activity against Salmonella typhimurium MTCC 3732 at 100 ug/mL after 12 hrs by well diffusion method. In kind it is functional. Conditions: for diameter of the inhibition zone (DIZ): Salmonella enterica subsp. enterica serovar Typhimurium; for zone of inhibition at 100 µg/mL: Salmonella enterica, MTCC 3732, 12 h, read-out: DIZ.

In assay [6] the test system is Mycolicibacterium smegmatis. Description: Antimicrobial activity against Mycobacterium smegmatis MTCC 943 at 50 ug/mL after 12 hrs by well diffusion method. It is filed as functional. Conditions: for zone of inhibition at 50 µg/mL: MTCC 943, 12 h, read-out: DIZ.
Assay [7] has as its system Mycolicibacterium smegmatis. Description: Antimicrobial activity against Mycobacterium smegmatis MTCC 943 at 100 ug/mL after 12 hrs by well diffusion method. In kind it is functional. Conditions: for zone of inhibition at 100 µg/mL: MTCC 943, 12 h, read-out: DIZ.
Assay [8] has as its system Staphylococcus aureus. The experiment in a line: Antimicrobial activity against Staphylococcus aureus MTCC 3160 at 100 ug/mL after 12 hrs by well diffusion method. In kind it is functional. Conditions: for zone of inhibition at 100 µg/mL: MTCC 3160, 12 h, read-out: DIZ.
For assay [9], the system named is Salmonella typhimurium. The experiment in a line: Antimicrobial activity against Salmonella typhimurium MTCC 3732 at 50 ug/mL after 12 hrs by well diffusion method. It is filed as functional. The following applies: for diameter of the inhibition zone (DIZ): Salmonella enterica subsp. enterica serovar Typhimurium; for zone of inhibition at 50 µg/mL: Salmonella enterica, MTCC 3732, 12 h, read-out: DIZ.

Assay [10] relates to Pseudomonas aeruginosa. Description: Antimicrobial activity against Pseudomonas aeruginosa MTCC 4673 at 100 ug/mL after 12 hrs by well diffusion method. It is filed as functional. Conditions: for zone of inhibition at 100 µg/mL: MTCC 4673, 12 h, read-out: DIZ.
For assay [11], the system named is Salmonella typhimurium. The experiment in a line: Antimicrobial activity against Salmonella typhimurium MTCC 3732 after 12 hrs by well diffusion method. In kind it is functional, Salmonella enterica subsp. enterica serovar Typhimurium. The following applies: Salmonella enterica, MTCC 3732, 12 h.
In assay [12] the test system is Mycolicibacterium smegmatis. The experiment in a line: Antimicrobial activity against Mycobacterium smegmatis MTCC 943 after 12 hrs by well diffusion method. In kind it is functional. Conditions: MTCC 943, 12 h.
Assay [13] concerns Candida albicans. The experiment in a line: Antimicrobial activity against Candida albicans MTCC 183 after 12 hrs by well diffusion method. In kind it is functional. The following applies: MTCC 183, 12 h.
Assay [14] concerns Staphylococcus aureus. Description: Antimicrobial activity against Staphylococcus aureus MTCC 3160 after 12 hrs by well diffusion method. In kind it is functional. Conditions: MTCC 3160, 12 h.
The subject of assay [15] is Pseudomonas aeruginosa. Description: Antimicrobial activity against Pseudomonas aeruginosa MTCC 4673 after 12 hrs by well diffusion method. In kind it is functional. Conditions: MTCC 4673, 12 h.

In the case of `C#CCn1cc(C(=O)NN)c(=O)c2cccc(C(F)(F)F)c21`, the “diameter of the inhibition zone (DIZ)” value in assay [1], in [3], in assay [4], in assay [5], in assay [6] and in assay [7] was “inactive” each time. In addition, the “diameter of the inhibition zone (DIZ)” value in assay [8], in assay [9] and in assay [10] was “inactive” in each case. Also, the DIZ entry in assay [2] was “inactive”.

For the compound `C#CCn1cc(C(=O)O)c(=O)c2cccc(C(F)(F)F)c21`, the “diameter of the inhibition zone (DIZ)” value in [1], in [3], in assay [4], in assay [5], in [6] and in [7] was “inactive” throughout. Moreover, the “diameter of the inhibition zone (DIZ)” value in assay [8], in [9] and in assay [10] was “inactive” in each case. Moreover, the DIZ result in [2] was “inactive”.

With `C#CCn1cc(C(=O)OCC)c(=O)c2ccc(C(F)(F)F)cc21`, the minimal inhibitory concentration (MIC) worked out at 25 µg/mL (≈ 77.3 µM) in assay [11]; 100 µg/mL (≈ 309 µM) in [12]; 100 µg/mL (≈ 309 µM) in assay [13]; 100 µg/mL (≈ 309 µM) in [14]; 50 µg/mL (≈ 155 µM) in assay [15]. Moreover, the “diameter of the inhibition zone (DIZ)” value in assay [1] and in [6] was “inactive” in each case. For the same compound, in assay [2], the DIZ entry is “inactive”. Moreover, the zone of inhibition at 100 µg/mL in assay [3] was determined as 8.33 mm; in [5], 11 mm; in assay [7], 9 mm; in assay [8] it was 9 mm; in assay [10], 8 mm. Further, the results for the zone of inhibition at 50 µg/mL in assay [4] and in assay [9] were 7 mm and 10.3 mm, respectively.

With `C#CCn1cc(C(=O)O)c(=O)c2ccc(C(F)(F)F)cc21`, the MIC in assay [11] is 25 µg/mL (≈ 84.7 µM); in assay [12], 100 µg/mL (≈ 339 µM); in [13] it was 25 µg/mL (≈ 84.7 µM); in assay [14], 100 µg/mL (≈ 339 µM); in [15] it was above 100 µg/mL. Moreover, the zone of inhibition at 50 µg/mL in assay [1] worked out at 12 mm; in assay [9] it was 8 mm. In assay [2], the DIZ result was “inactive”. Also, the zone of inhibition at 100 µg/mL in assay [3] is 12 mm; in assay [5] it was 8 mm; in assay [7], 7 mm; in assay [8], 10 mm. The “diameter of the inhibition zone (DIZ)” value in assay [4], in assay [6] and in [10] was “inactive” in each case.

In the case of `C#CCn1cc(C(=O)OCC)c(=O)c2cccc(C(F)(F)F)c21`, the “diameter of the inhibition zone (DIZ)” value in [1], in [3], in [4], in [5], in assay [6] and in [7] was “inactive” each time. In addition, the “diameter of the inhibition zone (DIZ)” value in [8], in assay [9] and in assay [10] was “inactive” throughout. The DIZ entry in assay [2] is “inactive”.

For `N#Cc1ccc(Cn2cc(C(=O)O)c(=O)c3cccc(C(F)(F)F)c32)cc1`, the MIC was above 100 µg/mL in assay [11]; above 100 µg/mL in assay [12]; 100 µg/mL (≈ 269 µM) in [13]; 100 µg/mL (≈ 269 µM) in assay [14]; 25 µg/mL (≈ 67.1 µM) in assay [15]. For the same compound, the “diameter of the inhibition zone (DIZ)” value in assay [1], in [5], in [6], in assay [7] and in assay [9] was “inactive” throughout. Besides, the DIZ result in assay [2] is “inactive”. Also, the zone of inhibition at 100 µg/mL in assay [3], in assay [8] and in assay [10] was 8 mm throughout. For the same compound, the zone of inhibition at 50 µg/mL in assay [4] worked out at 8 mm.

Consider `OC(Cn1cncn1)(Cn1cncn1)c1ccc(F)cc1F` [FLUCONAZOLE], for which the zone of inhibition at 50 µg/mL in assay [1] was determined as 26.3 mm. Also, in assay [3], the zone of inhibition at 100 µg/mL is 29 mm. In [13], this compound yielded an MIC below 10 µg/mL.

With `O=C(O)c1cn(Cc2ccc(Cl)cc2Cl)c2cc(C(F)(F)F)ccc2c1=O`, the MIC in assay [11] is above 100 µg/mL; in assay [12], above 100 µg/mL; in assay [13] it was 50 µg/mL (≈ 120 µM); in assay [14], 100 µg/mL (≈ 240 µM); in assay [15], above 100 µg/mL. Further, the “diameter of the inhibition zone (DIZ)” value in assay [1], in [4], in assay [5], in assay [6], in assay [7] and in [9] was “inactive” throughout. The “diameter of the inhibition zone (DIZ)” value in assay [10] is “inactive”. Besides, in assay [2], the DIZ result was “inactive”. Besides, the zone of inhibition at 100 µg/mL in assay [3] was found to be 7 mm; in [8], 10 mm.

`CCOC(=O)c1cn(Cc2ccc(C#N)cc2)c2c(C(F)(F)F)cccc2c1=O`: the “diameter of the inhibition zone (DIZ)” value in assay [1], in assay [3], in assay [4], in [5], in assay [6] and in [7] was “inactive” in each case. Moreover, the “diameter of the inhibition zone (DIZ)” value in [8], in assay [9] and in assay [10] was “inactive” throughout. In assay [2], the DIZ result was “inactive”.

With `O=C(O)c1cn(Cc2ccc(Cl)cc2Cl)c2c(C(F)(F)F)cccc2c1=O`, the minimal inhibitory concentration (MIC) is above 100 µg/mL in assay [11]; 25 µg/mL (≈ 60.1 µM) in assay [12]; 50 µg/mL (≈ 120 µM) in assay [13]; 100 µg/mL (≈ 240 µM) in assay [14]; 25 µg/mL (≈ 60.1 µM) in assay [15]. The zone of inhibition at 50 µg/mL in [1] came out at 7 mm; in assay [4], 13.6 mm; in assay [6], 11 mm. Besides, in assay [2], the DIZ entry is “inactive”. For the same compound, the zone of inhibition at 100 µg/mL amounted to 9 mm in assay [3], 12 mm in assay [7], 9 mm in assay [8] and 14 mm in [10]. Further, the “diameter of the inhibition zone (DIZ)” value in assay [5] and in [9] was “inactive” each time.

For `CCOC(=O)c1cn(Cc2ccc(Cl)cc2Cl)c2cc(C(F)(F)F)ccc2c1=O`, the “diameter of the inhibition zone (DIZ)” value in assay [1], in assay [3], in [4], in assay [5], in assay [6] and in [7] was “inactive” each time. The “diameter of the inhibition zone (DIZ)” value in [8], in [9] and in assay [10] was “inactive” throughout. Besides, the DIZ entry in [2] was “inactive”.

With `NNC(=O)c1cn(Cc2ccc(Cl)cc2Cl)c2cc(C(F)(F)F)ccc2c1=O`, the MIC in assay [11] is above 100 µg/mL; in [12], 25 µg/mL (≈ 58.1 µM); in assay [13], 100 µg/mL (≈ 232 µM); in assay [14], 100 µg/mL (≈ 232 µM); in assay [15] it was 25 µg/mL (≈ 58.1 µM). The “diameter of the inhibition zone (DIZ)” value in assay [1], in [5] and in [9] was “inactive” in each case. Further, the DIZ result in [2] was “inactive”. The zone of inhibition at 100 µg/mL is 7 mm in assay [3], 9 mm in [7], 8 mm in assay [8] and 8 mm in [10]. Besides, the zone of inhibition at 50 µg/mL in assay [4] was 8 mm; in [6], 9 mm.

In the case of `N#Cc1ccc(Cn2cc(C(=O)O)c(=O)c3ccc(C(F)(F)F)cc32)cc1`, the minimum inhibitory concentration (MIC) is above 100 µg/mL in [11]; above 100 µg/mL in assay [12]; 50 µg/mL (≈ 134 µM) in [13]; above 100 µg/mL in [14]; 25 µg/mL (≈ 67.1 µM) in [15]. In addition, the zone of inhibition at 50 µg/mL in assay [1] is 7.6 mm; in [4], 8 mm. Moreover, the DIZ entry in assay [2] was “inactive”. Also, the zone of inhibition at 100 µg/mL is 8.33 mm in assay [3] and 8 mm in assay [10]. Also, the “diameter of the inhibition zone (DIZ)” value in assay [5], in [6], in assay [7], in assay [8] and in [9] was “inactive” each time.

In general, MIC refers to the lowest concentration that inhibits growth of the organism.

For the origin of these results see ChEMBL document CHEMBL2424533, “Design and regioselective synthesis of trifluoromethylquinolone derivatives as potent antimicrobial agents” (2013).
